Structures are written as SMILES.

As a reminder, the IC50 is the concentration that inhibits the measured activity by half. The Kd is the free concentration of one partner at which half of the binding sites on the other are occupied at equilibrium, for simple one-to-one binding. The low end stands for tighter binding, the high end for weaker binding. What is called EC50 is the concentration giving half of the maximal effect.

T1 sequence (Q92769 whole entry): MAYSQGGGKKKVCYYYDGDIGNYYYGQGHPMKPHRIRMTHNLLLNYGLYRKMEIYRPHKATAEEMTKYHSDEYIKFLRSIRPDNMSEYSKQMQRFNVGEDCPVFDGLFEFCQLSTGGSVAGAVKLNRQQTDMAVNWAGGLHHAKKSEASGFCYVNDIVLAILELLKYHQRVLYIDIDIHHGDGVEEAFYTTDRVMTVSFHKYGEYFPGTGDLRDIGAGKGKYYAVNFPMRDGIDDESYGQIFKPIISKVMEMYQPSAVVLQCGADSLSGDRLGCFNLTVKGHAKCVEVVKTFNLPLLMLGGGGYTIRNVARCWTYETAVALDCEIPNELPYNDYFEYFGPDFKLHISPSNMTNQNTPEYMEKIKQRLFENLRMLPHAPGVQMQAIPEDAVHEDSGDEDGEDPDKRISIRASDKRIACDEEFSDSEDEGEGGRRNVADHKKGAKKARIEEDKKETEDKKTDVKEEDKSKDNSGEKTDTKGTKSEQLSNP

In one test the test system is recombinant human HDACs. In words: HDAC enzymatic assay (LabChip capillary electrophoresis). The settings on record: 5 nM HDAC enzyme, 1 uM substrate, 5 hours pre-incubation, 17 hours reaction at 25°C; isoform not given. The test is classed as biochemical. The protocol: All recombinant human HDACs were purchased from BPS Bioscience. The substrate, FAM-TSRHK(AC)KL-CONH, was synthesized at NanoSyn. Final assay reactions contained 100 mM HEPES (pH 7.5), 50 mM KCl, 0.1% BSA, 0.01% Triton X-100, 1% DMSO, 1 uM substrate and 5 nM HDAC enzyme. Enzyme and compounds were pre-incubated at 25°C for 5 hours and reactions were initiated by addition of substrate. 10 uL reactions were incubated for 17 hours at 25°C and terminated by the addition of 40 uL of buffer containing 100 mM HEPES (pH 7.5), 0.1% BSA, 0.01% Triton X-100 and 0.05% SDS. Substrate and product peptides present in each sample were separated electrophoretically using the LabChip 3000 capillary electrophoresis instrument. Change in the relative fluorescence intensity of the substrate and product peaks reflects enzyme activity. Reaction progress was determined as the product to sum ratio (PSR): P/(S+P), where P is the peak height of the product peptide and S is the peak height of the substrate peptide. Reactions were performed in duplicate at 12 concentrations, (3X serial dilutions starting at 30 uM). IC50 values were calculated using a 4 Parameter Logistic Model.
Turning to `Nc1ccc(-c2ccc(F)cc2)nc1NC(=O)N1Cc2cnc(CN3CC(F)(F)C3)cc2C1` [Compound 266], the IC50 is 500 to 5000 nM.
Same read-out and setting: with `Nc1ccc(-c2ccc(F)cc2)nc1NC(=O)N1C[C@@H]2[C@H](C1)[C@H]2NC1COC1` [Compound 267] the figure was greater than 5000 nM; with `CN1CC(CN2C[C@@H]3[C@H](C2)[C@H]3C(=O)Nc2nc(-c3ccc(F)cc3)ccc2N)C1` [Compound 268], greater than 5000 nM.
Still for that read-out and setting: under `CN1CCN(C[C@@H]2[C@H]3CN(C(=O)Nc4nc(-c5ccc(F)cc5)ccc4N)C[C@@H]23)CC1` [Compound 269] stands greater than 5000 nM; under `Nc1ccc(-c2ccc(F)cc2)nc1NC(=O)N1C[C@@H]2[C@@H](CN3CCC3)[C@@H]2C1` [Compound 270], greater than 5000 nM.
Consider `Nc1ccc(-c2ccc(F)cc2)nc1NC(=O)N1Cc2cc(CN3CC(F)(F)C3)cnc2C1` [Compound 271], for which the IC50 is 500 to 5000 nM.
In the case of `Nc1ccc(-c2ccc(F)cc2)nc1NC(=O)N1Cc2cc(CN3CCC3)cnc2C1` [Compound 272], the IC50 lay in the range of 100 to 500 nM.
On the same count and under the same terms, under `Nc1ccc(-c2ccc(F)cc2)nc1NC(=O)N1Cc2cc(CN3CCC(F)(F)C3)cnc2C1` [Compound 273] stands 100 to 500 nM.
On the same count and under the same terms, with `CC(C)Cc1cnc2c(c1)CN(C(=O)Nc1nc(-c3ccc(F)cc3)ccc1N)C2` [Compound 274] the figure was 100 to 500 nM; with `Nc1ccc(-c2ccc(F)cc2)nc1NC(=O)N1Cc2cc(CN3CC(F)C3)cnc2C1` [Compound 275], 100 to 500 nM; with `COC[C@@H]1[C@H]2CN(C(=O)Nc3nc(-c4ccc(F)cc4)ccc3N)C[C@@H]12` [Compound 276], 500 to 5000 nM.
As to `Nc1ccc(-c2ccc(F)cc2)nc1NC(=O)N1Cc2cncnc2C1` [Compound 277], the half-inhibitory concentration (IC50) lay within 500 to 5000 nM.
The same measure, in the same setting: with `Nc1ccc(-c2ccc(F)cc2)nc1NC(=O)N1Cc2ccc(CO)cc2C1` [Compound 366] the figure was 100 to 500 nM; with `CN1CCN(Cc2ccc3c(c2)CN(C(=O)Nc2nc(-c4ccc(F)cc4)ccc2N)C3)CC1` [Compound 367], 100 to 500 nM.
Still for that read-out and setting: under `CN(C)Cc1ccc2c(c1)CN(C(=O)Nc1nc(-c3ccc(F)cc3)ccc1N)C2` [Compound 371] stands 100 to 500 nM.
On to `Nc1ccc(-c2ccc(F)cc2)nc1NC(=O)N1Cc2ccncc2C1` [Compound 373], for which the IC50 lay in the range of 100 to 500 nM.
The same measure, in the same setting: with `CN1CCN(c2ccc3c(n2)CN(C(=O)Nc2nc(-c4ccc(F)cc4)ccc2N)C3)CC1` [Compound 391] the figure was 100 to 500 nM.
On the same count and under the same terms, with `Nc1ccc(-c2cccnc2)nc1NC(=O)N1Cc2ccc(CO)cc2C1` [Compound 395] the figure was greater than 5000 nM; with `Nc1ccc(-c2ccc(F)cc2)nc1NC(=O)N1Cc2cccnc2C1` [Compound 397], 100 to 500 nM.
For the compound `Nc1ccc(-c2ccc(F)cc2)nc1NC(=O)N1Cc2ccc(CN3CCCC3)cc2C1` [Compound 405], the IC50 lay in the range of 100 to 500 nM.

Another test addresses T1, HDAC2 (Homo sapiens, UniProt Q92769).
T1 construct: purchased Proteros
Nature of the test: Reporter displacement assay (HDAC2). Type of test: binding. To be noted: 20 nM HDAC2, 180 nM reporter probe, read after 4 hours; Kd by Cheng Prusoff equation. The procedure: HDAC2 containing a C-terminal HIS-Tag (Proteros) and fluorescently-labeled anti-HIS-antibody are diluted in one vial in assay buffer 50 mM Tris, pH 8.0, 1 mM DTT, 150 mM NaCl, and 0.01% Tween20. Components are pre-incubated for 30 min, then a small volume of reporter probe (Proteros) is added from a highly concentrated stock and incubation is continued for another 30 min. […] Ten µl/well of pre-formed complex are transferred into 384 well assay plates (Corning). Compounds to be profiled are serially diluted from 1x10^1 - 5.7x10^-5 mM in DMSO and 60 nl are added to assay plates by pintool transfer (CybiWell, Cybio). Fluorescence intensity signal is read after 4 hours in a Pherastar FS (BMG Labtech) at 337/665 nm. For Kd determination, percent probe displacement values are calculated for each compound concentration and plotted against the compound concentration. […] Since the reporter probe is used at a concentration reflecting its own Kd value, compound Kd values can be calculated according to the Cheng Prusoff equation. […] Table 4. HDAC1 and HDAC2 Kd Values for Exemplary Compounds Useful in the Invention
Compound `Nc1nn(-c2ccccc2)cc1NC(=O)N1Cc2ccncc2C1` [Compound 101] came in with an equilibrium dissociation constant (Kd) greater than 5000 nM.
With `Nc1nn(-c2ccc(F)cc2)cc1NC(=O)N1Cc2ccncc2C1` [Compound 102], the dissociation constant (Kd) was greater than 5000 nM.

A further test deals with SH-SY5Y cells. In words: Cell assay in SH-SY5Y cells with HDAC-Glo 2 reagent. Type of test: cell-based. The settings on record: Homo sapiens, 5 h, five hours at 37°C, CI-994 at 100 uM defined as 100% inhibition. The procedure: SH-SY5Y cells (Sigma) were cultured in Eagle's Modified Essential Medium supplemented with 10% fetal bovine serum and pen/strep. Twenty-four hours prior to compound dosing 20 uL of cells were plated in white 384 well plates at a density of 1,500 cells/well. Compounds were serially diluted in neat DMSO and then diluted 1:100 v/v into media without FBS and mixed. Media was removed from the plated cells and the diluted compounds in serum free media (1% v/v final DMSO) were added and incubated at 37°C for five hours. Ten uL of HDAC-Glo 2 reagent with 0.1% Triton X-100 was then added, the plate was mixed and allowed to develop at room temperature for 100 minutes. Plates were then read with a Spectramax LMax luminometer employing a 0.4s integration time. Dose response curves were constructed with normalized data where CI-994 at 100 uM was defined as 100% inhibition and DMSO alone as 0% inhibition. Table 5. IC50 and EC50 Values for Exemplary Compounds Useful in the Invention
Compound `Nc1ccc(-c2ccc(F)cc2)nc1NC(=O)N1Cc2cnc(CN3CC(F)(F)C3)cc2C1` [Compound 266] had a concentration for a half-maximal effect (EC50) of 500 to 5000 nM.
Compound `Nc1ccc(-c2ccc(F)cc2)nc1NC(=O)N1C[C@@H]2[C@H](C1)[C@H]2NC1COC1` [Compound 267] returned a concentration for a half-maximal effect (EC50) greater than 5000 nM.
As for `CN1CC(CN2C[C@@H]3[C@H](C2)[C@H]3C(=O)Nc2nc(-c3ccc(F)cc3)ccc2N)C1` [Compound 268], the EC50 is greater than 5000 nM.
Turning to `CN1CCN(C[C@@H]2[C@H]3CN(C(=O)Nc4nc(-c5ccc(F)cc5)ccc4N)C[C@@H]23)CC1` [Compound 269], the EC50 is greater than 5000 nM.
On the same count and under the same terms, under `Nc1ccc(-c2ccc(F)cc2)nc1NC(=O)N1C[C@@H]2[C@@H](CN3CCC3)[C@@H]2C1` [Compound 270] stands greater than 5000 nM; under `Nc1ccc(-c2ccc(F)cc2)nc1NC(=O)N1Cc2cc(CN3CC(F)(F)C3)cnc2C1` [Compound 271], 500 to 5000 nM.
Same read-out and setting: under `Nc1ccc(-c2ccc(F)cc2)nc1NC(=O)N1Cc2cc(CN3CCC3)cnc2C1` [Compound 272] stands 100 to 500 nM; under `Nc1ccc(-c2ccc(F)cc2)nc1NC(=O)N1Cc2cc(CN3CCC(F)(F)C3)cnc2C1` [Compound 273], 100 to 500 nM; under `CC(C)Cc1cnc2c(c1)CN(C(=O)Nc1nc(-c3ccc(F)cc3)ccc1N)C2` [Compound 274], 100 to 500 nM.
Turning to `Nc1ccc(-c2ccc(F)cc2)nc1NC(=O)N1Cc2cc(CN3CC(F)C3)cnc2C1` [Compound 275], the half-maximal effective concentration (EC50) lay within 100 to 500 nM.
For the compound `COC[C@@H]1[C@H]2CN(C(=O)Nc3nc(-c4ccc(F)cc4)ccc3N)C[C@@H]12` [Compound 276], the EC50 fell in the range of 500 to 5000 nM.
In turn, `Nc1ccc(-c2ccc(F)cc2)nc1NC(=O)N1Cc2cncnc2C1` [Compound 277] showed an EC50 of 500 to 5000 nM.
On the same count and under the same terms, with `Nc1ccc(-c2ccc(F)cc2)nc1NC(=O)N1Cc2ccc(CO)cc2C1` [Compound 366] the figure was 500 to 5000 nM; with `CN1CCN(Cc2ccc3c(c2)CN(C(=O)Nc2nc(-c4ccc(F)cc4)ccc2N)C3)CC1` [Compound 367], 500 to 5000 nM.
The same measure, in the same setting: under `CN(C)Cc1ccc2c(c1)CN(C(=O)Nc1nc(-c3ccc(F)cc3)ccc1N)C2` [Compound 371] stands 500 to 5000 nM; under `Nc1ccc(-c2ccc(F)cc2)nc1NC(=O)N1Cc2ccncc2C1` [Compound 373], 500 to 5000 nM.
Still for that read-out and setting: with `CN1CCN(c2ccc3c(n2)CN(C(=O)Nc2nc(-c4ccc(F)cc4)ccc2N)C3)CC1` [Compound 391] the figure was 100 to 500 nM.
`Nc1ccc(-c2cccnc2)nc1NC(=O)N1Cc2ccc(CO)cc2C1` [Compound 395] yielded an EC50 of 500 to 5000 nM.
The same measure, in the same setting: under `Nc1ccc(-c2ccc(F)cc2)nc1NC(=O)N1Cc2cccnc2C1` [Compound 397] stands 100 to 500 nM; under `Nc1ccc(-c2ccc(F)cc2)nc1NC(=O)N1Cc2ccc(CN3CCCC3)cc2C1` [Compound 405], 100 to 500 nM.

For a further test, the target named is HDAC1 (Homo sapiens, UniProt Q13547). Nature of the test: Reporter displacement assay (HDAC1). The test is classed as binding.
Sequence of HDAC1 (Q13547 whole entry): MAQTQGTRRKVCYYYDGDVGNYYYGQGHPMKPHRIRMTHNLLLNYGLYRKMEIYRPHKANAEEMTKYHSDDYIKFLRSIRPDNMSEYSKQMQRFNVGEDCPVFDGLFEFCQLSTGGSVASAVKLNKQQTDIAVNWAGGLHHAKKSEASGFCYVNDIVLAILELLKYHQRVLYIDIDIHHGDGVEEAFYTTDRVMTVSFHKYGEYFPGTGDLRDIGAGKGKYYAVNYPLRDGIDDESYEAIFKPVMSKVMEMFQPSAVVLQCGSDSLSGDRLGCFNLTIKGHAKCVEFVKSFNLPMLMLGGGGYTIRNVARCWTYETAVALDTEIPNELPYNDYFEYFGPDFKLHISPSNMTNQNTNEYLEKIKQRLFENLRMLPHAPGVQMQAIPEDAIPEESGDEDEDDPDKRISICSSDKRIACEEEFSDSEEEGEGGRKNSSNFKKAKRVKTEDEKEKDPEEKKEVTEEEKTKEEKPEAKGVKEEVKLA
Details: not given
With `Nc1nn(-c2ccccc2)cc1NC(=O)N1Cc2ccncc2C1` [Compound 101], the Kd was greater than 5000 nM.
The compound `Nc1nn(-c2ccc(F)cc2)cc1NC(=O)N1Cc2ccncc2C1` [Compound 102] yielded an equilibrium dissociation constant (Kd) greater than 5000 nM.

The values are drawn from patent EP3319959B1, “HETERO-HALO INHIBITORS OF HISTONE DEACETYLASE” (Alkermes, Inc., priority 2015, dated 2017).
